Experimental findings from US12091425B2 (AMGEN INC., priority 2016, dated 2024) are described below.

For assay [1], the target named is T1, Mcl-1/Bim interaction, recombinant human Mcl-1 (171-327) (Homo sapiens, UniProt Q07820).
T1 construct: made in house
The experiment in a line: Cell free Mcl-1: Bim Affinity Assay (Mcl-1 HTRF). It is filed as binding. Summed up: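 Biotin-Bim(51-76) peptide, TR-FRET readout, overnight incubation; IC50 from duplicate competition curves, 4-parameter fit.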
(In general: TR-FRET usually uses a lanthanide donor and a delayed reading to cut background.)

Assay [2] has as its system OPM-2 human multiple myeloma cell line. Briefly: Cell Viability Assay (OPM-2 10 FBS). It is filed as cell-based. As to conditions: Homo sapiens, OPM-2, 16 h, OPM-2 cells, 16 h, CellTiter-Glo. The essentials:
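OPM-2 myeloma cells, 3000/well in medium with 10% FBS, exposed to serially diluted compounds for 16 h at 37° C./5% CO2. Viability read by CellTiter-Glo luminescence; IC50 from 4-parameter logistic fit.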
Background: In ATP-based viability assays light output follows the ATP content of the culture.

Where [3] appears, read: TR-FRET, 0.1 nM Mcl-1 (171-327), 0.05 nM biotin-Bim (51-76).
The mark [4] stands for this setting: cell free Mcl-1:Bim TR-FRET, recombinant human Mcl-1 (171-327).

What is called IC50 is the point on the concentration scale where inhibition reaches its midpoint.

Structures are written as SMILES.

T1 sequence (Q07820 171-327): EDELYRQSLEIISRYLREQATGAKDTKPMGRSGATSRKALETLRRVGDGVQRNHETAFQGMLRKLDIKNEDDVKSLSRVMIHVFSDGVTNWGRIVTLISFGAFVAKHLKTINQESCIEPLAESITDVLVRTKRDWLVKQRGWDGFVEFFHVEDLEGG

For the compound `C[C@@H]1CC/C=C/[C@H](OCC(=O)O)[C@@H]2CC[C@H]2CN2C[C@@]3(CCCc4cc(Cl)ccc43)COc3ccc(cc32)C(=O)NS1(=O)=O` [Example 407, (((1S,3′R,6′R,7′S,8′E,12′R)-6-chloro-12′-methyl-13′,13′-dioxido-15′-oxo-3,4-dihydro-2H-spiro[naphthalene-1,22′-[20]oxa[13]thia[1,14]diazatetracyclo[14.7.2.0^3,6.0^19,24]pentacosa [8,16,18,24]tetraen]-7′-yl)oxy)acetic acid], the half-maximal inhibitory concentration (IC50) in assay [1] (setting [3]) is 0.127 nM; in assay [2], 14400 nM.
In the same order, the values of `COC(=O)CO[C@H]1/C=C/CC[C@@H](C)S(=O)(=O)NC(=O)c2ccc3c(c2)N(C[C@@H]2CC[C@H]21)C[C@@]1(CCCc2cc(Cl)ccc21)CO3` [Example 408, methyl(((1S,3′R,6′R,7′S,8′E,12′R)-6-chloro-12′-methyl-13′,13′-dioxido-15′-oxo-3,4-dihydro-2H-spiro[naphthalene-1,22′-[20]oxa[13]thia[1,14]diazatetracyclo[14.7.2.0^3,6.0^19,24]pentacosa [8,16,18,24]tetraen]-7′-yl)oxy)acetate] are 0.312 nM and 98.8 nM.
In the case of `Cc1noc(C)c1CO[C@H]1/C=C/CC[C@@H](C)S(=O)(=O)NC(=O)c2ccc3c(c2)N(C[C@@H]2CC[C@H]21)C[C@@]1(CCCc2cc(Cl)ccc21)CO3` [Example 409, (1S,3′R,6′R,7′S,8′E,12′R)-6-chloro-7′-((3,5-dimethyl-4-isoxazolyl)methoxy)-12′-methyl-3,4-dihydro-2H,15′H-spiro[naphthalene-1,22′-[20]oxa[13]thia[1,14]diazatetracyclo[14.7.2.0^3,6.0^19,24]pentacosa [8,16,18,24]tetraen]-15′-one 13′,13′-dioxide], the IC50 was determined as 1.27 nM in assay [1] (setting [3]) and 751 nM in assay [2].
The corresponding values for `C[C@@H]1CC/C=C/[C@H](OCc2ncn(C)n2)[C@@H]2CC[C@H]2CN2C[C@@]3(CCCc4cc(Cl)ccc43)COc3ccc(cc32)C(=O)NS1(=O)=O` [Example 410, (1S,3′R,6′R,7′S,8′E,12′R)-6-chloro-12′-methyl-7′-((l-methyl-1H-1,2,4-triazol-3-yl)methoxy)-3,4-dihydro-2H,15′H-spiro[naphthalene-1,22′-[20]oxa[13]thia[1,14]diazatetracyclo[14.7.2.0^3,6.0^19,24]pentacosa [8,16,18,24]tetraen]-15′-one 13′,13′-dioxide] are 0.144 nM and 208 nM.
Regarding `Cc1cc(CO[C@H]2/C=C/CC[C@@H](C)S(=O)(=O)NC(=O)c3ccc4c(c3)N(C[C@@H]3CC[C@H]32)C[C@@]2(CCCc3cc(Cl)ccc32)CO4)no1` [Example 411, (1S,3′R,6′R,7′S,8′E,12′R)-6-chloro-12′-methyl-7′-((5-methyl-3-isoxazolyl)methoxy)-3,4-dihydro-2H,15′H-spiro[naphthalene-1,22′-[20]oxa[13]thia[1,14]diazatetracyclo[14.7.2.0^3,6.0^19,24]pentacosa [8,16,18,24]tetraen]-15′-one 13′,13′-dioxide], the IC50 amounted to 1.29 nM in assay [1] (setting [3]) and 2410 nM in assay [2].
Consider `Cc1nnc(CO[C@H]2/C=C/CC[C@@H](C)S(=O)(=O)NC(=O)c3ccc4c(c3)N(C[C@@H]3CC[C@H]32)C[C@@]2(CCCc3cc(Cl)ccc32)CO4)o1` [Example 412, (1S,3′R,6′R,7′S,8′E,12′R)-6-chloro-12′-methyl-7′-((5-methyl-1,3,4-oxadiazol-2-yl)methoxy)-3,4-dihydro-2H,15′H-spiro[naphthalene-1,22′-[20]oxa[13]thia[1,14]diazatetracyclo[14.7.2.0^3,6.0^19,24]pentacosa [8,16,18,24]tetraen]-15′-one 13′,13′-dioxide], for which the IC50 in assay [1] (setting [3]) is 0.267 nM; in assay [2], 325 nM.
`C[C@@H]1CC/C=C/[C@H](O[C@H]2CCOC2=O)[C@@H]2CC[C@H]2CN2C[C@@]3(CCCc4cc(Cl)ccc43)COc3ccc(cc32)C(=O)NS1(=O)=O` [Example 413]: the IC50 in assay [1] (setting [3]) worked out at 0.358 nM; in assay [2] it was 374 nM.
As to `C[C@@H]1CC/C=C/[C@H](OCc2cnnn2C)[C@@H]2CC[C@H]2CN2C[C@@]3(CCCc4cc(Cl)ccc43)COc3ccc(cc32)C(=O)NS1(=O)=O` [Example 416, (1S,3′R,6′R,7′S,8′E,12′R)-6-chloro-12′-methyl-7′-((1-methyl-1H-1,2,3-triazol-5-yl)methoxy)-3,4-dihydro-2H,15′H-spiro[naphthalene-1,22′-[20]oxa[13]thia[1,14]diazatetracyclo[14.7.2.0^3,6.0^19,24]pentacosa [8,16,18,24]tetraen]-15′-one 13′,13′-dioxide], the IC50 in assay [1] (setting [3]) turned out to be 0.377 nM; in assay [2], 1060 nM.
With `C[C@@H]1CC/C=C/[C@H](OCc2cn(C)nn2)[C@@H]2CC[C@H]2CN2C[C@@]3(CCCc4cc(Cl)ccc43)COc3ccc(cc32)C(=O)NS1(=O)=O` [Example 417, (1S,3′R,6′R,7′S,8′E,12′R)-6-chloro-12′-methyl-7′-((1-methyl-1H-1,2,3-triazol-4-yl)methoxy)-3,4-dihydro-2H,15′H-spiro[naphthalene-1,22′-[20]oxa[13]thia[1,14]diazatetracyclo[14.7.2.0^3,6.0^19,24]pentacosa [8,16,18,24]tetraen]-15′-one 13′,13′-dioxide], the IC50 in assay [1] (setting [3]) turned out to be 0.214 nM; in assay [2], 834 nM.
For `C[C@@H]1CC/C=C/[C@H](OCCN2CCOCC2)[C@@H]2CC[C@H]2CN2C[C@@]3(CCCc4cc(Cl)ccc43)COc3ccc(cc32)C(=O)NS1(=O)=O` [Example 418, (1S,3′R,6′R,7′S,8′E,12′R)-6-chloro-12′-methyl-7′-(2-(4-morpholinyl)ethoxy)-3,4-dihydro-2H,15′H-spiro[naphthalene-1,22′-[20]oxa[13]thia[1,14]diazatetracyclo[14.7.2.0^3,6.0^19,24]pentacosa [8,16,18,24]tetraen]-15′-one 13′,13′-dioxide], the IC50 was determined as 0.275 nM in assay [1] (setting [3]) and 111 nM in assay [2].
The corresponding values for `CC[C@@H]1CC/C=C/[C@H](OCc2ncn(C)n2)[C@@H]2CC[C@H]2CN2C[C@@]3(CCCc4cc(Cl)ccc43)COc3ccc(cc32)C(=O)NS1(=O)=O` [Example 423, (1S,3′R,6′R,7′S,8′E,12′R)-6-chloro-12′-ethyl-7′-((1-methyl-1H-1,2,4-triazol-3-yl)methoxy)-3,4-dihydro-2H,15′H-spiro[naphthalene-1,22′-[20]oxa[13]thia[1,14]diazatetracyclo[14.7.2.0^3,6.0^19,24]pentacosa [8,16,18,24]tetraen]-15′-one 13′,13′-dioxide] are 0.249 nM and 198 nM.
The corresponding values for `CC[C@@H]1CC/C=C/[C@H](OC(C)=O)[C@@H]2CC[C@H]2CN2C[C@@]3(CCCc4cc(Cl)ccc43)COc3ccc(cc32)C(=O)NS1(=O)=O` [Example 426, (1S,3′R,6′R,7′S,8′E,12′R)-6-chloro-12′-ethyl-13′,13′-dioxido-15′-oxo-3,4-dihydro-2H-spiro[naphthalene-1,22′-[20]oxa[13]thia[1,14]diazatetracyclo[14.7.2.0^3,6.0^19,24]pentacosa [8,16,18,24]tetraen]-7′-yl acetate] are 2.1 nM and 941 nM.
Take `C[C@@H]1[C@@H](C)C/C=C/[C@H](OCCCO)[C@@H]2CC[C@H]2CN2C[C@@]3(CCCc4cc(Cl)ccc43)COc3ccc(cc32)C(=O)NS1(=O)=O` [Example 509, (1S,3′R,6′R,7′S,8′E,11′S,12′R)-6-chloro-7′-(3-hydroxypropoxy)-11′,12′-dimethyl-3,4-dihydro-2H,15′H-spiro[naphthalene-1,22′-[20]oxa[13]thia[1,14]diazatetracyclo[14.7.2.0^3,6.0^19,24]pentacosa [8,16,18,24]tetraen]-15′-one 13′,13′-dioxide]: the IC50 in assay [1] (setting [4]) came out at 0.188 nM; in assay [2], 235 nM.
As to `C[C@@H]1[C@@H](C)C/C=C/[C@H](OC[C@H]2CCCO2)[C@@H]2CC[C@H]2CN2C[C@@]3(CCCc4cc(Cl)ccc43)COc3ccc(cc32)C(=O)NS1(=O)=O` [Example 510, (1S,3′R,6′R,7′S,8′E,11′S,12′R)-6-chloro-11′,12′-dimethyl-7′-((2R)-tetrahydro-2-furanylmethoxy)-3,4-dihydro-2H,15′H-spiro[naphthalene-1,22′-[20]oxa[13]thia[1,14]diazatetracyclo[14.7.2.0^3,6.0^19,24]pentacosa [8,16,18,24]tetraen]-15′-one 13′,13′-dioxide], the IC50 came out at 1.25 nM in assay [1] (setting [4]) and 587 nM in assay [2].
In the same order, the values of `C[C@@H]1[C@@H](C)C/C=C/[C@H](OCCCl)[C@@H]2CC[C@H]2CN2C[C@@]3(CCCc4cc(Cl)ccc43)COc3ccc(cc32)C(=O)NS1(=O)=O` [Example 511, (1S,3′R,6′R,7′S,8′E,11′S,12′R)-6-chloro-7′-(2-chloroethoxy)-11′,12′-dimethyl-3,4-dihydro-2H,15′H-spiro[naphthalene-1,22′-[20]oxa[13]thia[1,14]diazatetracyclo[14.7.2.0^3,6.0^19,24]pentacosa [8,16,18,24]tetraen]-15′-one 13′,13′-dioxide] are 1.5 nM and 311 nM.
For the compound `COCCCO[C@H]1/C=C/C[C@H](C)[C@@H](C)S(=O)(=O)NC(=O)c2ccc3c(c2)N(C[C@@H]2CC[C@H]21)C[C@@]1(CCCc2cc(Cl)ccc21)CO3` [Example 512, (1S,3′R,6′R,7′S,8′E,11′S,12′R)-6-chloro-7′-(3-methoxypropoxy)-11′,12′-dimethyl-3,4-dihydro-2H,15′H-spiro[naphthalene-1,22′-[20]oxa[13]thia[1,14]diazatetracyclo[14.7.2.0^3,6.0^19,24]pentacosa [8,16,18,24]tetraen]-15′-one 13′,13′-dioxide], the IC50 came out at 0.998 nM in assay [1] (setting [4]) and 362 nM in assay [2].
